The results in this text go back to patent US4882347A, “"N-imidazolyl derivatives of bicyclic compounds and pharmaceutical compositions containing the same"” (Farmitalia Carlo Erba, S.r.l., priority 1987, dated 1989).

Like-named read-outs stand apart in the source and are kept apart here.

Experiment [1] relates to doxorubicin induced nephrosis. Put plainly: doxorubicin induced nephrosis in rats (oral treatment). The note with it: 50 mg/kg b.i.d. oral. In kind it is in vivo, rat. The protocol:
The compound 1,2-dihydro-3-(1-imidazolyl)-6-carboxy-naphthalene (internal code FCE 22178) was orally administered, for doxorubicin induced nephrosis, to rats at a dosage of 50 mg/kg b.i.d. for 7 days starting from the 21st day after doxorubicin injection. A reduction in both proteinuria (from 1018±102 to 751±49 mg/24 h p<0.005) and creatinine serum levels (from 1.85±0.26 to 0.97±0.009 mg/dl p<0.001) was observed.
Moreover, in the spontaneous focal glomerulonephritis of the MNS rats, FCE 22178 was administered at the dosage of 50 mg/kg p.o. die+100 mg/kg/die in drinking water starting from the first month of age and all along the life of the animal and in comparison with a not treated group.
Compound 1,2-dihydro-3-(1-imidazolyl)-6-carboxynaphthalene, internal code FCE 22178, for instance, in this model at the oral dosage of 50 mg/kg b.i.d. for 7 days starting from the 21st after doxorubicin injection lowered triglycerides serum levels from 783±152 to 481.8±84 mg/dl.

For the next experiment, the target named is T1, glomerular TxA2 synthase (Rattus norvegicus, UniProt P49430).
T1 construct: from tissue; host or cells: isolated glomeruli of rat kidney (remnant kidney and sham operated rats)
T1 sequence (P49430 1-533): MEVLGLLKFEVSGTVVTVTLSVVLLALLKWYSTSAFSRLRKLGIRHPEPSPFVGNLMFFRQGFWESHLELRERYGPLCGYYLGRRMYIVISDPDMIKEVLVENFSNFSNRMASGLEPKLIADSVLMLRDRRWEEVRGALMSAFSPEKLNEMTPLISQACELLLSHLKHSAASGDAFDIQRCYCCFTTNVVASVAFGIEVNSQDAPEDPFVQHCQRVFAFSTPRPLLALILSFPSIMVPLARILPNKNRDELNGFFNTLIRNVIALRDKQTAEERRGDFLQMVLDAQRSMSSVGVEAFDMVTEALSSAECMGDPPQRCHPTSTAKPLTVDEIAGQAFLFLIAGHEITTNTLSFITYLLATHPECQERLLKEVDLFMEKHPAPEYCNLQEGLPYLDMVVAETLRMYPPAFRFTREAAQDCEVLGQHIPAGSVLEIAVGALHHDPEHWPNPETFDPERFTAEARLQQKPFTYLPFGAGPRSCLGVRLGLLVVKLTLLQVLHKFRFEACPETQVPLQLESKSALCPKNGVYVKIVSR
Put plainly: in vitro TxA2 synthase inhibiting activity in isolated glomeruli (TxB2 by RIA). It counts as biochemical. The protocol: (§1) Charles River C.D. male rats of 6 weeks of age were used for this experiment. […] Four weeks after the second operation the blood pressure was measured and the rats were placed in metabolic cages for evaluation of proteinuria, measured by the method of Lowry. Only the animals with a blood pressure ≥170 mm Hg and an urinary protein excretion ≥100 mg/day were used. Comparative experiments were performed using sham operated rats. Also the in vitro TxA2 synthase inhibiting activities in serum and in isolated glomeruli were studied and compared. Glomerula preparation was performed according to the method previously described and TxB2 was measured by RIA.

The test system of experiment [2] is spontaneous focal glomerulonephritis of the MNS rats. Put plainly: spontaneous focal glomerulonephritis in Milan Normotensive Strain (MNS) rats. In kind it is in vivo, rat. The protocol: Moreover, in the spontaneous focal glomerulonephritis of the MNS rats, FCE 22178 was administered at the […] not treated group.
Sclerotic glomeruli show massive deposition of PAS-stained material.
Flattening and fusion of the foot processes, as well as formation of blebs and of electron dense lysosomes, together with the frequent detachment of the cell from the GMB is regarded to be related to the massive leakage of proteins through the glomerulus.

The target of another experiment is T2, serum TxA2 synthase (Rattus norvegicus, UniProt P49430).
T2 construct: from tissue; host or cells: rat blood / serum (remnant kidney and sham operated rats)
T2 sequence (P49430 1-533): T1 sequence (P49430 1-533)
Put plainly: in vitro TxA2 synthase inhibiting activity in serum (TxB2 by RIA). In kind it is biochemical. The protocol:
as §1

Setting [3] is: glomeruli of RRM (remnant kidney) rats, read-out: IC50, glomerular TxB2 production.
Setting [4] is: serum of RRM (remnant kidney) rats, read-out: IC50, serum TxB2 production / TxA2 synthesis.

Compound `O=C(O)c1ccc2c(c1)C=C(n1ccnc1)CC2` [FCE 22178, 1,2-dihydro-3-(1-imidazolyl)-6-carboxynaphthalene] returned a creatinine serum levels in experiment [1] (7 days from 21st day after doxorubicin, from 1.85±0.26, p<0.001) of 0.97 ± 0.009 mg/dL. In experiment [1] (7 days from 21st day after doxorubicin, from 783±152), the triglycerides serum levels was found to be 481.8 ± 84 mg/dL. For the same compound, the proteinuria in experiment [1] (7 days from 21st day after doxorubicin, from 1018±102, p<0.005) is recorded as 751±49 mg/24 h; in experiment [2] (adult MNS rats, 50 mg/kg p.o. die + 100 mg/kg/die in drinking water, vs 428.8±42.3 in controls, p<0.01), 237±30.3 mg/24 h. The “urine TxB2 levels” value in experiment [1] (7 days, from 20.3±2.5 ng/24 h) is recorded as “under the detection limit of the method”. Also, in experiment [1] (7 days, from 536±55 ng/ml), the “serum TxB2 levels” value turned out to be 92 ± 8.3 ng/mL. Moreover, the “selectivity for glomerular TxA2 synthase (vs serum)” value at glomerular TxA2 synthase (RRM rats, compared to OKYO46) is reported as “greater selectivity for glomerular TxA2 synthase”. Further, the IC50 on glomerular TxA2 synthase (setting [3]) worked out at 0.032 nM; at glomerular TxA2 synthase (glomeruli of control sham operated rats, read-out: IC5 (so in the source), glomeruli) it was 0.07 nM; on serum TxA2 synthase (setting [4]) it was 1.7 nM; on serum TxA2 synthase (serum of control sham operated rats, read-out: IC5 (so in the source), serum), 1 nM. Also, the “production of TxA2 (measured as TxB2 levels) in isolated glomeruli” value in experiment [2] (50 mg/kg p.o. die + 100 mg/kg/die in drinking water from first month of age, untreated 4.44±1.2 at 8 months, p<0.01) was found to be 2.77±0.53 ng/mg prot. Moreover, the TxB2 in urine entry in experiment [2] (50 mg/kg p.o. die + 100 mg/kg/die in drinking water, pattern as in isolated glomeruli (greatly reduced)) was “The same pattern was observed in urine”. Also, the total cholesterol in experiment [2] (14 months old rats treated for 2 months, from 223±36) amounted to 130.5 ± 12.2 mg/dL. In experiment [2] (14 months old rats treated for 2 months, from 338.6±56), this compound returned a phospholipids of 197.8 ± 21 mg/dL. In experiment [2] (14 months old rats treated for 2 months, from 399.6±105), the triglycerides stood at 169.3 ± 26.1 mg/dL. The “glomerular filtration rate (GFR)” value in experiment [2] (adult MNS rats, 50 mg/kg p.o. die + 100 mg/kg/die in drinking water, printed: 1210±38 in controls vs treated, p<0.01) worked out at 816±45 μl/min/g k.w. Further, the “number of sclerotic glomeruli” value in experiment [2] (light microscopy, aged (14 months) MNS rats, control 27%, p<0.05) came out at 22%. In experiment [2] (ultrastructural investigation, treated vs untreated MNS rats), the “entity of flattening and fusion of foot processes in non sclerotic glomeruli” value is on record as “definitly lower in treated animals”.

Regarding `Cl.O.O=C(O)/C=C/c1ccc(Cn2ccnc2)cc1` [OKYO46, (E)-3-[4-(1H-imidazol-1-ylmethyl)-phenyl]-2-propenoic acid monohydrochloride monohydrate, reference compound], on glomerular TxA2 synthase (control sham operated rats), the “selectivity glomeruli vs serum” value was “losed his selectivity”. The IC50 at glomerular TxA2 synthase (setting [3]) was 0.09 nM; on glomerular TxA2 synthase (glomeruli of control sham operated rats, read-out: IC50, glomeruli) it was 1 nM; on serum TxA2 synthase (setting [4]), 0.6 nM; at serum TxA2 synthase (serum of control sham operated rats, read-out: IC50, serum), 50000 nM.
